Measurements taken from patent publication US12168008B2, “Oxabicycloheptanes for modulation of immune response” (LIXTE BIOTECHNOLOGY, INC., priority 2016, dated 2024).

Key:
clinical = type: in vivo, human; settings: for Cmax / AUC / Tmax: endothall after LB-100 2.33 mg/m^2
Experimental: The main objective was to determine the safety, tolerability, and maximum tolerated dose of LB-100 given intravenously daily for three consecutive days every 3 weeks. The secondary objectives were to document any evidence of potential anti-tumor activity and obtain pharmacokinetic data on LB-100 and a metabolite, endothall, in patients receiving LB-100 at the MTD (Quang et al., 2016).
The plasma concentrations of LB-100 and endothall were measured (Quang et al., 2016) prior to and over 4 hours after completion of the 2-hour infusion at the MTD of 2.33 mg/m2 of LB-100 on day 1 in one patient and on day 1 and 3 in two patients. […] Plasma concentrations of endothall were low throughout the infusion, being below the lower limit of detection (5 ng/mL) in one patient.

solid tumor = settings: cited from earlier work
[1] = human, in vivo; cited from earlier work

With `O=C(O)[C@@H]1[C@H](C(=O)O)[C@H]2CC[C@@H]1O2` [endothall] the Cmax (clinical; subject 001-0030, day 1, N-D = below lower limit of quantification (5 ng/ml)) was “N-D^a”, the Cmax (clinical; subject 001-0030, day 3, N-D = below lower limit of quantification (5 ng/ml)) was “N-D^a” and the AUC (clinical; subject 002-0028, day 1) was 22 ng·h/mL. For the same molecule, the Cmax (clinical; subject 002-0028, day 1) was 11.5 ng/mL, the Tmax (clinical; subject 002-0028, day 1) was 4 h and the AUC (clinical; subject 002-0028, day 3) was 143 ng·h/mL. The Cmax (clinical; subject 002-0028, day 3) was 34.3 ng/mL, the Tmax (clinical; subject 002-0028, day 3) was 4 h and the AUC (clinical; subject 003-0029, day 1) was 28 ng·h/mL. The Cmax (clinical; subject 003-0029, day 1) was 14.8 ng/mL, the Tmax (clinical; subject 003-0029, day 1) was 4 h and the “plasma concentration of endothall” value (clinical; one patient, after LB-100 2.33 mg/m2, lower limit of detection) was under 5 ng/mL. The “maximal concentration of endothall” value (clinical; other two patients, last sampling time point (4 h)) was 34.7 ng/mL.

For `C[C@@](O)(/C=C/[C@H]1CC=CC(=O)O1)[C@@H](C[C@@H](O)\C=C/C=C\C=C\CO)OP(=O)(O)O` [fostriecin], the “dose-limiting toxicity (DLT)” value (solid tumor; in vivo) is listed as “without dose-limiting toxicity” and the disease stability (solid tumor; of 46 solid tumor patients) is listed as 16 (34.8%) patients (%).

For “ipilimumab: human cytotoxic T-lymphocyte antigen 4 (CTLA-4)-blocking antibody”, the incidence of death [1] is listed as 2.1% and the “patients with grade 3 or 4 adverse events” value [1] is listed as “up to 15%”.
